Measurements taken from patent publication US20110053916A1 (Vertex Pharmaceuticals Incorporated, priority 2009, published 2011).

These molecules were tested against T1, PknB (Mycobacterium tuberculosis, UniProt P9WI81) (assay: biochemical). Details: 3 nM PknB, 6 uM GarA, 3 μM ATP, 30 min; competitive tight-binding fit; several symbols in a cell = repeat determinations.
T1 construct: made in house
Set-up: species or system M. tuberculosis

T1 sequence (P9WI81 whole entry): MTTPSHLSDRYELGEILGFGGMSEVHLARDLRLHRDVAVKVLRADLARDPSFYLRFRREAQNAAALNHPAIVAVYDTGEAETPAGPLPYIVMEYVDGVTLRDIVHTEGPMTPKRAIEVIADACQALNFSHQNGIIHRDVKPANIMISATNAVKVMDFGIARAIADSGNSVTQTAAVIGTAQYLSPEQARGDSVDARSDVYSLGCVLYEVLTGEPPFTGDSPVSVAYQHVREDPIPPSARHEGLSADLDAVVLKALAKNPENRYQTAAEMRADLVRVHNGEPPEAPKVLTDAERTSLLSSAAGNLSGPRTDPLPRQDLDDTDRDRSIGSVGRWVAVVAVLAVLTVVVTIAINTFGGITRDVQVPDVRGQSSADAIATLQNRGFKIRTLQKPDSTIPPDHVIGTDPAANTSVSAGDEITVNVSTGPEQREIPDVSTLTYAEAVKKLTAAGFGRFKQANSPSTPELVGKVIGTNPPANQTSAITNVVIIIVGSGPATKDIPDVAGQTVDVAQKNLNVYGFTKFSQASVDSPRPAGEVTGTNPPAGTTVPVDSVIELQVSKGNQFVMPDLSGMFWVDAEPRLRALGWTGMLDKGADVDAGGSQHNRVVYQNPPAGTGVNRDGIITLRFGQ

Structure (SMILES) | Ki Values
COc1cnc(N2CCCCC2)nc1Nc1cc(C2CC2)[nH]n1 [Compound 68, N-(5-cyclopropyl-1H-pyrazol-3-yl)-5-methoxy-2-(1-piperidyl)pyrimidin-4-amine] | A, B**
C#Cc1cnc(N2CC[C@@H](NC(C)=O)C2)nc1Nc1cc(C2CC2)n[nH]1 [Compound 193, N-[1-[4-[(5-cyclopropyl-2H-pyrazol-3-yl)amino]-5-ethynyl-pyrimidin-2-yl]pyrrolidin-3-yl]acetamide] | B, C
CCc1cnc(N2CCCCC2)nc1Nc1cc(C2CC2)[nH]n1 [Compound 45, N-(5-cyclopropyl-1H-pyrazol-3-yl)-5-ethyl-2-(1-piperidyl)pyrimidin-4-amine] | C, D
O=C(NC1CCCCC1)c1nccc(Nc2cc(C3CC3)n[nH]2)n1 [Compound 109, N-cyclohexyl-4-[(5-cyclopropyl-2H-pyrazol-3-yl)amino]pyrimidine-2-carboxamide] | B, B*
Nc1cnc(-c2ccccc2)nc1Nc1cc(C2CC2)[nH]n1 [Compound 5, N-(5-cyclopropyl-1H-pyrazol-3-yl)-2-phenylpyrimidine-4,5-diamine] | A*, A
NC(=O)c1ccc(Nc2nccc(Nc3cc(C4CC4)n[nH]3)n2)cc1 [Compound 60, 4-[[4-[(5-cyclopropyl-2H-pyrazol-3-yl)amino]pyrimidin-2-yl]amino]benzamide] | C, C, D
C[C@H](O)c1ccc(-c2ncc(Cl)c(Nc3cc(C4CC4)[nH]n3)n2)s1 [Compound 132, (S)-1-(5-(4-(5-cyclopropyl-1H-pyrazol-3-ylamino)-5-chloropyrimidin-2-yl)thiophen-2-yl)ethanol] | A**, A*

Same assay, conditions: 3 nM PknB, 6 uM GarA, 3 μM ATP, 30 min; competitive tight-binding fit; several symbols in a cell = repeat determinations; read-out: Ki Values

Structure (SMILES) | Ki [nM]
CC(C)(C)NS(=O)(=O)c1ccc(-c2nc(CO)cc(Nc3cc(C4CC4)[nH]n3)n2)s1 [Compound 286, 5-[4-[(5-cyclopropyl-1H-pyrazol-3-yl)amino]-6-(hydroxymethyl)pyrimidin-2-yl]-N-tert-butyl-thiophene-2-sulfonamide] | 10 to 50
Oc1cnc(-c2ccccc2)nc1Nc1cc(C2CC2)[nH]n1 [Compound 55, 4-(5-cyclopropyl-1H-pyrazol-3-ylamino)-2-phenylpyrimidin-5-ol] | 1000 to 2000
C#Cc1cnc(-c2ccc(C(=C)C)s2)nc1Nc1cc(C2CC2)n[nH]1 [Compound 119, N-(5-cyclopropyl-2H-pyrazol-3-yl)-5-ethynyl-2-(5-isopropenyl-2-thienyl)-pyrimidin-4-amine] | 10 to 50
C#Cc1cnc(N2CC[C@@H](N)C2)nc1Nc1cc(C2CC2)n[nH]1 [Compound 184, 2-(3-aminopyrrolidin-1-yl)-N-(5-cyclopropyl-2H-pyrazol-3-yl)-5-ethynyl-pyrimidin-4-amine] | > 4000
NC(=O)c1cc(-c2ncc(F)c(Nc3cc(C4CC4)[nH]n3)n2)ccc1Cl [Compound 34, 2-chloro-5-[4-[(5-cyclopropyl-1H-pyrazol-3-yl)amino]-5-fluoro-pyrimidin-2-yl]-benzamide] | 10 to 50
Cc1cnc(-c2ccc(CC#N)cc2)nc1Nc1cc(C2CC2)[nH]n1 [Compound 24, 2-(4-(4-(5-cyclopropyl-1H-pyrazol-3-ylamino)-5-methylpyrimidin-2-yl)phenyl)acetonitrile] | 10 to 50
NS(=O)(=O)c1ccccc1Nc1nccc(Nc2cc(C3CC3)[nH]n2)n1 [Compound 120, 2-[[4-[(5-cyclopropyl-1H-pyrazol-3-yl)amino]pyrimidin-2-yl]amino]benzenesulfonamide] | 100 to 500
N#Cc1ccc(-c2ncc(Cl)c(Nc3cc(C4CC4)[nH]n3)n2)s1 [Compound 140, 5-(5-chloro-4-(5-cyclopropyl-1H-pyrazol-3-ylamino)pyrimidin-2-yl)thiophene-2-carbonitrile] | 10 to 50
NS(=O)(=O)c1ccc(-c2ncc(Cl)c(Nc3cc(C4CCCC4)[nH]n3)n2)s1 [Compound 235, 5-[5-chloro-4-[(5-cyclopentyl-1H-pyrazol-3-yl)amino]-pyrimidin-2-yl]thiophene-2-sulfonamide] | 10 to 50
C#Cc1cnc(-c2ccc(C(O)CCO)s2)nc1Nc1cc(C2CC2)[nH]n1 (stereo not shown) [Compound 242, 1-(5-(4-(5-cyclopropyl-1H-pyrazol-3-ylamino)-5-ethynylpyrimidin-2-yl)thiophen-2-yl)propane-1,3-diol] | 10 to 50
Nc1cccc(Nc2nccc(Nc3cc(C4CC4)n[nH]3)n2)c1 [Compound 100, N-(3-aminophenyl)-N′-(5-cyclopropyl-2H-pyrazol-3-yl)-pyrimidine-2,4-diamine] | 100 to 500
CC(C)(C)OC(=O)Nc1ccc(-c2ncc(Cl)c(Nc3cc(C4CC4)[nH]n3)n2)s1 [Compound 324, tert-butyl [[5-[5-chloro-4-[(5-cyclopropyl-1H-pyrazol-3-yl)amino]-pyrimidin-2-yl]-2-thienyl]amino]formate] | 100 to 500
Clc1cnc(-c2cccs2)nc1Nc1cc(C2CC2)[nH]n1 [Compound 29, 5-chloro-N-(5-cyclopropyl-1H-pyrazol-3-yl)-2-(thiophen-2-yl)pyrimidin-4-amine] | 50 to 100
Cc1cnc(-c2ccc(S(N)(=O)=O)s2)nc1Nc1cc(C2CC2)n(C)n1 [Compound 150, 5-[4-[(5-cyclopropyl-1-methyl-pyrazol-3-yl)amino]-5-methyl-pyrimidin-2-yl]thiophene-2-sulfonamide] | > 4000
CC(=O)OCCc1cnc(-c2ccc(S(=O)(=O)NC(C)(C)C)s2)nc1Nc1cc(C2CC2)[nH]n1 [Compound 309, 2-[4-[(5-cyclopropyl-1H-pyrazol-3-yl)amino]-2-[5-(tert-butylsulfamoyl)-2-thienyl]-pyrimidin-5-yl]ethyl acetate] | 100 to 500
Cc1cnc(-c2ccc(S(N)(=O)=O)s2)nc1Nc1cc(C2CC2)[nH]n1 [Compound 40, 5-(4-(5-cyclopropyl-1H-pyrazol-3-ylamino)-5-methylpyrimidin-2-yl)thiophene-2-sulfonamide] | 1 to 10
Brc1c(C2CC2)n[nH]c1Nc1ccnc(-c2ccccc2)n1 [Compound 7, N-(4-bromo-5-cyclopropyl-2H-pyrazol-3-yl)-2-phenyl-pyrimidin-4-amine] | > 4000

Structure (SMILES) | Ki [nM]
NS(=O)(=O)c1ccc(-c2ccnc(Nc3cc(C4CC4)n[nH]3)n2)s1 [Compound 315, 5-[2-[(5-cyclopropyl-2H-pyrazol-3-yl)amino]pyrimidin-4-yl]thiophene-2-sulfonamide] | 1 to 10
C#Cc1cnc(-c2ccc(S(C)(=O)=O)cc2)nc1Nc1cc(C2CC2)[nH]n1 [Compound 153, N-(5-Cyclopropyl-1H-pyrazol-3-yl)-5-ethynyl-2-(4-(methylsulfonyl)phenyl)pyrimidin-4-amine] | 10 to 50
O=[N+]([O-])c1cnc(-c2ccccc2)nc1Nc1cc(C2CC2)[nH]n1 [Compound 6, N-(5-cyclopropyl-1H-pyrazol-3-yl)-5-nitro-2-phenylpyrimidin-4-amine] | > 4000
NS(=O)(=O)c1cc(-c2nccc(Nc3cc(C4CC4)[nH]n3)n2)ccc1O [Compound 318, 5-[4-[(5-cyclopropyl-1H-pyrazol-3-yl)amino]pyrimidin-2-yl]-2-hydroxy-benzenesulfonamide] | 10 to 50
c1csc(-c2nccc(Nc3cc(C4CC4)[nH]n3)n2)c1 [Compound 27, N-(5-cyclopropyl-1H-pyrazol-3-yl)-2-(thiophen-2-yl)pyrimidin-4-amine] | 10 to 50
CC(=O)c1ccc(-c2ncc(Cl)c(Nc3cc(C4CC4)[nH]n3)n2)o1 [Compound 288, 1-[5-[5-chloro-4-[(5-cyclopropyl-1H-pyrazol-3-yl)amino]-pyrimidin-2-yl]-2-furyl]ethanone] | 100 to 500
N#CCc1ccc(-c2ncc(Cl)c(Nc3cc(C4CC4)n[nH]3)n2)s1 [Compound 143, 2-(5-(5-chloro-4-(3-cyclopropyl-1H-pyrazol-5-ylamino)pyrimidin-2-yl)thiophen-2-yl)acetonitrile] | 1 to 10
NS(=O)(=O)c1ccc(-c2nc(Nc3cc(C4CC4)n[nH]3)cc(C3CC3)n2)s1 [Compound 298, 5-(4-cyclopropyl-6-(3-cyclopropyl-1H-pyrazol-5-ylamino)pyrimidin-2-yl)thiophene-2-sulfonamide] | 50 to 100
CC(=O)Nc1cnc(-c2ccccc2)nc1Nc1cc(C2CC2)[nH]n1 [Compound 10, N-(4-(5-cyclopropyl-1H-pyrazol-3-ylamino)-2-phenylpyrimidin-5-yl)acetamide] | 1000 to 2000
C#Cc1cnc(-c2ccc(C(=O)C(=O)O)s2)nc1Nc1cc(C2CC2)[nH]n1 [Compound 246, 2-[5-[4-[(5-cyclopropyl-1H-pyrazol-3-yl)amino]-5-ethynyl-pyrimidin-2-yl]-2-thienyl]-2-oxo-acetic acid] | 10 to 50
C#Cc1cnc(-c2ccc(C#N)s2)nc1Nc1cc(C2CC2)[nH]n1 [Compound 157, 5-(4-(5-Cyclopropyl-1H-pyrazol-3-ylamino)-5-ethynylpyrimidin-2-yl)thiophene-2-carbonitrile] | 1 to 10
CC#Cc1cnc(-c2ccccc2)nc1Nc1cc(C2CC2)n[nH]1 [Compound 9, N-(5-cyclopropyl-1H-pyrazol-3-yl)-2-phenyl-5-(prop-1-ynyl)pyrimidin-4-amine] | > 4000
OCc1ccc(-c2nccc(Nc3cc(C4CC4)[nH]n3)n2)s1 [Compound 22, (5-(4-(5-cyclopropyl-1H-pyrazol-3-ylamino)pyrimidin-2-yl)thiophen-2-yl)methanol] | 10 to 50
C[S+]([O-])c1ccc(-c2ncc(Cl)c(Nc3cc(C4CC4)[nH]n3)n2)s1 (stereo not shown) [Compound 264, 5-chloro-N-(5-cyclopropyl-1H-pyrazol-3-yl)-2-(5-methylsulfinyl-2-thienyl)-pyrimidin-4-amine] | 1 to 10
O=C(O)c1ccc(Nc2nccc(Nc3cc(C4CC4)n[nH]3)n2)cc1 [Compound 57, 4-[[4-[(5-cyclopropyl-2H-pyrazol-3-yl)amino]pyrimidin-2-yl]amino]benzoic acid] | 100 to 500
COCc1cnc(N2CCCCC2)nc1Nc1cc(C2CC2)[nH]n1 [Compound 70, N-(5-cyclopropyl-1H-pyrazol-3-yl)-5-(methoxymethyl)-2-(1-piperidyl)pyrimidin-4-amine] | > 4000
